{"source": "paper PMC12320245", "about": "(International Journal of Biological Sciences, 2025)", "key": {"[1]": {"test_system": "ipsilateral hippocampus of TBI rats", "assay": "Controlled cortical impact TBI: IgG extravasation (BBB integrity)", "assay_type": "in vivo, rat", "details": "24 hours and 2 weeks post-TBI", "procedure": "(§1) This study used male Sprague-Dawley rats weighing 300-350 g and aged 8 weeks, obtained from DBL Co. (Chungcheongbuk-do, Republic of Korea). The rats were housed in a controlled environment with a temperature of 20 ± 2 °C, a relative humidity of 55 ± 5%, and a 12-hour light/dark cycle. They were provided ad libitum access to food and water. To minimize stress associated with transportation, animals underwent a one-week acclimatization period before the start of the experiments. All experimental procedures were conducted in compliance with the guidelines of the National Institutes of Health for the care and use of laboratory animals and were approved by the Hallym University Institutional Animal Care and Use Committee (protocol # Hallym 2022-23, approved on July 15, 2022). This manuscript follows the principles outlined in the Animal research: reporting in vivo experiments (ARRIVE) guidelines.\nA controlled cortical impact (CCI) model was used to induce TBI in rats. Animals were anesthetized with 1-1.5% isoflurane in a 30:70 oxygen-to-nitrous oxide mixture and securely positioned in a stereotaxic frame. A 3 mm craniotomy was performed using a portable drill at a site 2.8 mm lateral to the midline and 3.0 mm posterior to Bregma. […]"}, "astrocytes": {"test_system": "astrocytes", "assay": "Lysosomal pH detection (DND-189 fluorescence)", "assay_type": "cell-based", "details": "10 μM AMX with 100 nM BafA1"}, "hippocampus of TBI rats": {"test_system": "hippocampus of TBI rats", "assay": "Controlled cortical impact TBI: Fluoro-Jade B neuronal death", "assay_type": "in vivo, rat", "details": "ipsilateral CA1, CA3, GCL, hilus, 24 hours post-TBI, vs TBI-vehicle", "procedure": "as §1\nA controlled cortical impact (CCI) model was used to induce TBI in rats. […]\nNeuronal death was assessed 24 hours after TBI via Fluoro-Jade B (FJB) staining, a method designed for detecting degenerating neurons. […] FJB-positive cells were quantified in hippocampal subregions, including CA1 (Cornu Ammonis 1), CA3 (Cornu Ammonis 3), GCL (granule cell layer), and the hilus."}, "[2]": {"details": "neuroinflammation or brain injury; cited from earlier work"}, "[3]": {"test_system": "cultured cortical astrocytes", "assay": "Intracellular cAMP levels in cultured astrocytes", "assay_type": "cell-based", "details": "1-hour treatment, 0.1 to 10 µM, particularly at 1 μM and 10 μM"}, "[4]": {"test_system": "LAMP2 in primary hippocampal neurons", "assay": "Scratch injury: LAMP2 Western blot", "assay_type": "cell-based, rat", "details": "scratch-AMX vs scratch-vehicle, 24 hours after scratch", "procedure": "Primary hippocampal neurons were obtained from embryonic day 18 (E18) Sprague-Dawley rat embryos. Pregnant rats were anesthetized using 2-3% isoflurane in a gas mixture of 70% nitrous oxide and 30% oxygen. Following euthanasia, the hippocampi were carefully dissected, minced, and enzymatically dissociated using TrypLE Express (Gibco, NY, USA) for 10 minutes at 37°C. The tissue was further mechanically dissociated using fire-polished glass pipettes, and the resulting cell suspension was filtered through a 70 μm cell strainer to remove debris. Neurons were seeded at a density of 3 × 10^5 cells per well in 24-well plates pre-coated with poly-L-lysine (Sigma-Aldrich, Saint Louis, MO, USA). Cells were maintained in neurobasal medium supplemented with B-27 (Thermo Fisher Scientific, Waltham, MA, USA), GlutaMAX (Gibco), and penicillin-streptomycin. […]\nA scratch injury model was used to mimic TBI in vitro. […] After the treatment period, neuronal damage and recovery were assessed using appropriate evaluation methods.\nTwenty-four hours after the scratch injury, cells were lysed using RIPA buffer (IBS-BR002, iNtRON, Republic of Korea) supplemented with protease and phosphatase inhibitors (Sigma, USA). […] Protein detection was performed using a chemiluminescence bioimaging device (Amersham Imager 680, Cytiva, MA, USA), and the results were analyzed to determine protein expression levels."}}, "note": "“Also recorded” adds a separate entry of the source.", "data": [{"compound": "CC(C)c1ccc2oc3nc(N)c(C(=O)O)cc3c(=O)c2c1", "note": "[AMX, amlexanox]", "values": [{"measurement": "IgG extravasation (BBB integrity)", "setting": "[1]", "value": "reduces this leakage; also recorded: significantly reduced IgG extravasation"}, {"measurement": "lysosomal pH (DND-189 fluorescence), reversal of BafA1 effect", "setting": "astrocytes", "value": "effectively reversed BafA1-induced alkalization"}, {"measurement": "number of FJB-positive degenerating neurons", "setting": "hippocampus of TBI rats", "value": "significantly reduced the number of FJB-positive degenerating neurons"}, {"measurement": "crossing of the BBB", "setting": "[2]", "value": "can cross the BBB under pathological conditions"}, {"measurement": "intracellular cAMP levels", "setting": "[3]", "value": "significantly increased intracellular cAMP levels"}, {"measurement": "LAMP2 expression", "setting": "[4]", "value": "significantly preserved"}]}]}
